Source: a melting point compilation (Tetko et al.; mined from patent text by program, amines drawn as free bases though some values may be those of a salt)

Compound | melting point
COc1ccc(N2C(=O)C(Oc3ccccc3)C2c2ccc(C(=O)O)cc2)cc1 (stereo not given) | 246 °C
Clc1ccc2c(c1)C(c1ccccc1Cl)=NCc1n[nH]cc1-2 | 142 to 144 °C
O=C(c1ccccn1)c1csc(-c2ccccc2)n1 | 95 to 97 °C
CC(C)n1c2ccccc2c2cc(NC(=O)c3ccccc3Cl)ccc21 | 195 °C
COc1cc(C(=O)NS(=O)(=O)c2ccccc2C)ccc1Cc1cn(C)c2ccc(CC(C)C(=O)NCC3CCCC3)cc12 (stereo not given) | 119 to 126 °C
CC(=O)N1CCCC(=O)c2ccc(Cl)cc2CCC1=O | 154 to 156 °C
CON=Cc1cc(NC(=O)N2CCOCN2)c(F)cc1Cl | 169 to 171 °C
CN(C)c1cc(C(F)(F)F)cc(Cl)c1-n1nc(C#N)c(S(=O)(=O)C(F)(F)F)c1N | 197 °C
CC(=O)OC1CSC(Oc2c(C)ccnc2Cl)C(OC(C)=O)C1OC(C)=O (stereo not given) | 144 °C
COC(=O)CCc1cc2ccc(C(F)(F)F)cc2[nH]1 | 108 to 110 °C
CCOC(=O)C(=C1SC(=S)N(CC(=O)O)C1=O)c1csc(NC(=S)NC(=O)c2ccccc2)n1 | 233 to 235 °C
NSc1nccnc1Cl | 113 to 114 °C
CCCCCCN1C(=O)C(=CC(=O)O)SC1=Nc1ccc(Cl)c(Cl)c1 | 156 to 157 °C
CCCCOc1c(CNC(=O)OC(C)(C)C)n(CC(C)(C)C)c(=O)c2ccc(/C=C/C(N)=O)cc12 | 121 to 122 °C
COC(=O)C=CN1c2ccccc2Sc2nccnc21 | 165 to 169 °C
CCOCC1=C(C(=O)OCC)C(c2cccc(C#N)c2)C(C(=O)OCC)=C(CC)N1 (stereo not given) | 125 °C
COc1ccccc1CC(=O)NCc1cccs1 | 84 °C
CC1(C)NCCc2c1oc1cc(S(=O)(=O)c3cccc(F)c3)ccc21 | 110 to 114 °C

The next lines start with the values.

melting point | Compound
104 to 106 °C | Brc1ccc(OCc2ccc3ccccc3c2)cc1
120 to 122 °C | O=C1CCC(=O)N1CC#CCn1ccnc1
170 °C | Cc1nc2ccc([N+](=O)[O-])cn2c(=O)c1CCCl
122 °C | Cn1nnc(CC[C@H]2CC[C@@H](c3ccc(F)cc3)N2S(=O)(=O)c2ccc(Cl)cc2)n1 (racemic)
130 to 132 °C | CCOC(=O)c1nc(C2CC2)nc(N)c1C
123 to 126 °C | Cc1ccccc1C(=O)N1CCc2nnc(Cl)cc2C1
173 to 174 °C | CCOC(=O)c1c(CCn2ccnc2)nc2cc(OC)c(OC)cc2c1-c1ccc(OC)c(OC)c1
88 to 90 °C | OCCCCOc1cccc(/C=C/c2nc3ccccc3s2)c1
112 to 114 °C | C=Cc1ccc2cc(C3CCN(Cc4ccccc4)CC3)ccc2c1
162 to 164 °C | CCN(C)c1cc(Br)cc(S(=O)(=O)c2ccc(N)cc2)c1
92 to 93 °C | NS(=O)(=O)OCCOc1ccc(O)cc1
94 to 95 °C | COc1ccccc1OCCCc1nc(-c2ccc(Cl)cc2)co1
143 °C | CC(C)(C)OC(=O)N1CCOc2ccc(O)cc2S1(=O)=O
218 to 220 °C | O=C(O)c1ccc(=O)n(CCCNC(=O)c2cccnc2)c1
158 to 160 °C | O=S(=O)(NCCO)c1ccc(Nc2nc(OCC3CCCCC3)c3nc[nH]c3n2)cc1
78 °C | CNC(=S)NS(=O)(=O)c1cc(CCNC(=O)C=Cc2cccs2)ccc1OCC1CCCO1 (stereo not given)
115 to 117 °C | CCCCNCc1cn(CCC(=O)NC(C)(C)c2ccc(Cl)cc2)cn1
92 to 94 °C | CN1c2ccncc2NC(CCc2ccccc2)c2cccn21 (stereo not given)
159 to 160 °C | Cc1nc(C)c(-c2ccnc(Nc3ccc(N4CCCCC4)c(C)c3)n2)s1
144 to 146 °C | COc1ccc(CN(C)CCCc2ccc(NC(=O)c3cccc4c(=O)c5cccc(OC)c5sc34)cc2)cc1OC
123 to 125 °C | N#CC(NC(=O)c1ccnc(Cl)c1)c1cccs1 (stereo not given)
145 °C | CCOC(=O)C=CN1C(C)(C)CC(=O)CC1(C)C
